Laboratory results from PubChem BioAssay (NCI).
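Growth conditions: 96-well plates. Treatment: test compound, 48 hours, 5 concentrations. Analysis: linear interpolation between bracketing concentrations; unreached endpoints set to highest concentration. The concentration for 50% growth inhibition is given as GI50. TGI: total growth inhibition.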

Legend:
Assay in all cases: NCI tumour cell line growth inhibition, 48 h
MDA-N = tested on: MDA-N
HS 578T breast = tested on: HS 578T breast
P388/ADR leukemia = tested on: P388/ADR leukemia
P388 leukemia = tested on: P388 leukemia
XF 498 CNS = tested on: XF 498 CNS
SN12K1 renal = tested on: SN12K1 renal
LXFL 529 NSCLC = tested on: LXFL 529 NSCLC

`O=C1Nc2ccc(Cl)cc2/C1=C\c1c(Cl)nc2sccn12` was tested, and the TGI (MDA-N) was 8.42 µM.
For `COC(=O)N1CC2C3C4CC(C(c5ccccc5)=C4c4ccccc4)C3C21` (stereo not given), the TGI (MDA-N) was 46.5 µM.
For `Cc1ccc(N(CC(=O)Nc2ccc(S(=O)(=O)N3CCC(N4CCCC4)CC3)cc2)S(=O)(=O)c2ccc(Cl)cc2)cc1`, the GI50 (HS 578T breast) was 1.76 µM and the TGI (HS 578T breast) was 4.39 µM.
With `CC(=O)NC1=C[C@@H]([C@H]2COC(C)(C)O2)OC1=O` the TGI (P388/ADR leukemia) was greater than 100 µM, the TGI (P388 leukemia) was greater than 100 µM and the TGI (XF 498 CNS) was greater than 100 µM. It also gave a TGI (SN12K1 renal) greater than 100 µM.
In the case of `O=C(Nc1ccc(-n2ccc3c(NC(=O)c4ccccc4)ncnc32)cc1)Nc1cccc(Cl)c1Cl`, the GI50 (HS 578T breast) is reported as 0.856 µM and the TGI (HS 578T breast) is reported as 2.6 µM.
For `CCOC(=O)CC1(c2cccc3ccccc23)OC(=O)c2ccccc21` (stereo not given), the TGI (LXFL 529 NSCLC) was greater than 100 µM.
For `C=C(OC1C(C)=C2C(C1OC(=O)CCCCCCC)C(C)(OC(C)=O)CC(OC(=O)CCC)C1(O)C2OC(=O)C1(C)O)/C(C)=C/C` (stereo not given), the TGI (P388/ADR leukemia) was 1.84 µM, the TGI (P388 leukemia) was 0.993 µM and the TGI (XF 498 CNS) was 8.97 µM. The TGI (SN12K1 renal) was 0.0786 µM.
